Data as given in patent publication US8741944B2, “Anti-infective agents against intracellular pathogens” (priority 2007, dated 2014).
“And” between values parts separate entries of the source, which are not always exact repeats. Equal values may be shown once. Read-outs that look alike come from different tables or passages of the source.

Assays:
[1] = test system: KM12 (Colon Cancer); test: NCI DTP tumor cell line screen (SRB), KM12
Method: (§1) For a typical screening experiment, cells are inoculated into 96 well microtiter plates in 100 μL at plating densities ranging from 5,000 to 40,000 cells/well depending on the doubling time of individual cell lines. After cell inoculation, the microtiter plates are incubated at 37° C., 5% CO2, 95% air and 100% relative humidity for 24 h prior to addition of experimental drugs.
(§2) After 24 h, two plates of each cell line are fixed in situ with TCA, to represent a measurement of the cell population for each cell line at the time of drug addition (Tz). Experimental drugs are solubilized in dimethyl sulfoxide at 400-fold the desired final maximum test concentration and stored frozen prior to use. At the time of drug addition, an aliquot of frozen concentrate is thawed and diluted to twice the desired final maximum test concentration with complete medium containing 50 μg/ml gentamicin. Additional four, 10-fold or ½ log serial dilutions are made to provide a total of five drug concentrations plus control. Aliquots of 100 μl of these different drug dilutions are added to the appropriate microtiter wells already containing 100 μl of medium, resulting in the required final drug concentrations.
(§3) Following drug addition, the plates are incubated for an additional 48 h at 37° C., 5% CO2, 95% air, and 100% relative humidity. For adherent cells, the assay is terminated by the addition of cold TCA. Cells are fixed in situ by the gentle addition of 50 μl of cold 50% (w/v) TCA (final concentration, 10% TCA) and incubated for 60 minutes at 4° C. The supernatant is discarded, and the plates are washed five times with tap water and air dried. Sulforhodamine B (SRB) solution (1001) at 0.4% (w/v) in 1% acetic acid is added to each well, and plates are incubated for 10 minutes at room temperature. After staining, unbound dye is removed by washing five times with 1% acetic acid and the plates are air dried. Bound stain is subsequently solubilized with 10 mM trizma base, and the absorbance is read on an automated plate reader at a wavelength of 515 nm. For suspension cells, the methodology is the same except that the assay is terminated by fixing settled cells at the bottom of the wells by gently adding 50 μl of 80% TCA (final concentration, 16% TCA). Using the seven absorbance measurements [time zero, (Tz), control growth, (C), and test growth in the presence of drug at the five concentration levels (Ti)], the percentage growth is calculated at each of the drug concentrations levels. Percentage growth inhibition is calculated as: [(Ti−Tz)/(C−Tz)]×100 for concentrations for which Ti>/=Tz [(Ti−Tz)/Tz]×100 for concentrations for which Ti<Tz
(§4) Three dose response parameters are calculated for each experimental agent. […] The drug concentration resulting in total growth inhibition (TGI) is calculated from Ti=Tz. […] Values are calculated for each of these three parameters if the level of activity is reached; however, if the effect is not reached or is exceeded, the value for that parameter is expressed as greater or less than the maximum or minimum concentration tested.

[2] = test system: COLO 205 (Colon Cancer); test: NCI DTP tumor cell line screen (SRB), COLO 205
Method: as §1, §2, §3, §4

[3] = test system: SR (Leukemia); test: NCI DTP tumor cell line screen (SRB), SR
Method: as §1, §2, §3, §4

[4] = test system: M14 (Melanoma); test: NCI DTP tumor cell line screen (SRB), M14
Method: as §1, §2, §3, §4

[5] = test system: sixty human tumor cell lines; test: NCI DTP sixty human tumor cell line screen (SRB), means over the panel
[6] = test system: OVCAR-8 (Ovarian Cancer); test: NCI DTP tumor cell line screen (SRB), OVCAR-8
Method: as §1, §2, §3, §4

[7] = test system: PC-3 (Prostate Cancer); test: NCI DTP tumor cell line screen (SRB), PC-3
Method: as §1, §2, §3, §4

[8] = test system: A549/ATCC (Non-Small Cell Lung Cancer); test: NCI DTP tumor cell line screen (SRB), A549/ATCC
Method: as §1, §2, §3, §4

[9] = test system: OVCAR-5 (Ovarian Cancer); test: NCI DTP tumor cell line screen (SRB), OVCAR-5
Method: as §1, §2, §3, §4

[10] = test system: OVCAR-4 (Ovarian Cancer); test: NCI DTP tumor cell line screen (SRB), OVCAR-4
Method: as §1, §2, §3, §4

[11] = test system: HCT-15 (Colon Cancer); test: NCI DTP tumor cell line screen (SRB), HCT-15
Method: as §1, §2, §3, §4

[12] = test system: HT29 (Colon Cancer); test: NCI DTP tumor cell line screen (SRB), HT29
Method: as §1, §2, §3, §4

[13] = test system: SN12C (Renal Cancer); test: NCI DTP tumor cell line screen (SRB), SN12C
Method: as §1, §2, §3, §4

[14] = test system: SK-MEL-28 (Melanoma); test: NCI DTP tumor cell line screen (SRB), SK-MEL-28
Method: as §1, §2, §3, §4

[15] = test system: NCI-H460 (Non-Small Cell Lung Cancer)
Method: as §1, §2, §3, §4

[16] = test system: MCF7 (Breast Cancer); test: NCI DTP tumor cell line screen (SRB), MCF7
Method: as §1, §2, §3, §4

In the case of “4-[5-(2-Phenanthrenyl)-3-(trifluoromethyl)-1H-pyrazol-1-yl]-phenyl -guanidine [Compound 71]”, the GI50 [1] is reported as 1590 nM, the TGI [1] is reported as 2.97E−06 and the “Percent Growth” value ([1]; Log10 Concentration −4.0) is reported as −43%. For the same substance, the “Percent Growth” value ([1]; Log10 Concentration −5.0) was −98%, the “Percent Growth” value ([1]; Log10 Concentration −7.0) was 91% and the “Percent Growth” value ([1]; Log10 Concentration −8.0) was 94%. For the same substance, the GI50 [2] was 1360 nM, the TGI [2] was 2.69E−06 and the “Percent Growth” value ([2]; Log10 Concentration −4.0) was −32%. For the same substance, the “Percent Growth” value ([2]; Log10 Concentration −6.0) was 73%, the “Percent Growth” value ([2]; Log10 Concentration −7.0) was 83% and the “Percent Growth” value ([2]; Log10 Concentration −8.0) was 95%. The GI50 [3] was 38.6 nM, the TGI [3] was 3.79E−07 and the “Percent Growth” value ([3]; Log10 Concentration −4.0) was −21%. The “Percent Growth” value ([3]; Log10 Concentration −5.0) was −36%, the “Percent Growth” value ([3]; Log10 Concentration −6.0) was −30% and the “Percent Growth” value ([3]; Log10 Concentration −7.0) was 42%. For the same substance, the “Percent Growth” value ([3]; Log10 Concentration −8.0) was 62%, the GI50 [4] was 1480 nM and the TGI [4] was 2.80E−06. The “Percent Growth” value ([4]; Log10 Concentration −4.0) was −33%, the “Percent Growth” value ([4]; Log10 Concentration −5.0) was −100% and the “Percent Growth” value ([4]; Log10 Concentration −7.0) was 82%. For the same substance, the “concentration range completely suppressing cell growth in a diverse range of tumor cell lines” value [5] was 3 to 5 µM, the GI50 ([5]; read-out: mean GI50 among the sixty cell lines, two-day treatment) was 1200 nM and 1300 nM and the CC50 ([5]; read-out: mean LC50 among the sixty cell lines, two-day treatment) was 8500 nM. For the same substance, the “mean TGI among the sixty cell lines” value ([5]; two-day treatment) was 2900 nM, the GI50 ([6]; OVCAR 8) was 1690 nM and the TGI ([6]; OVCAR 8) was 3.05E−06. The “Percent Growth” value ([6]; OVCAR 8, Log10 Concentration −4.0) was −69%, the “Percent Growth” value ([6]; OVCAR 8, Log10 Concentration −5.0) was −100% and the “Percent Growth” value ([6]; OVCAR 8, Log10 Concentration −6.0) was 94%. For the same substance, the “Percent Growth” value ([6]; OVCAR 8, Log10 Concentration −8.0) was 92%, the GI50 [7] was 1380 nM and the TGI [7] was 2.67E−06. The “Percent Growth” value ([7]; Log10 Concentration −5.0) was −100%, the “Percent Growth” value ([7]; Log10 Concentration −6.0) was 75% and the “Percent Growth” value ([7]; Log10 Concentration −7.0) was 73%. For the same substance, the “Percent Growth” value ([7]; Log10 Concentration −8.0) was 75%, the GI50 [8] was 1680 nM and the TGI [8] was 3.04E−06. The “Percent Growth” value ([8]; Log10 Concentration −4.0) was −63%, the “Percent Growth” value ([8]; Log10 Concentration −5.0) was −100% and the GI50 [9] was 1730 nM. For the same substance, the TGI [9] was 3.11E−06, the “Percent Growth” value ([9]; Log10 Concentration −4.0) was −8% and the “Percent Growth” value ([9]; Log10 Concentration −5.0) was −100%. The “Percent Growth” value ([9]; Log10 Concentration −6.0) was 97%, the “Percent Growth” value ([9]; Log10 Concentration −8.0) was 95% and the GI50 [10] was 1310 nM. For the same substance, the TGI [10] was 2.58E−06, the “Percent Growth” value ([10]; Log10 Concentration −4.0) was −66% and the “Percent Growth” value ([10]; Log10 Concentration −5.0) was −100%. For the same substance, the “Percent Growth” value ([10]; Log10 Concentration −6.0) was 70%, the “Percent Growth” value ([10]; Log10 Concentration −7.0) was 79% and the GI50 ([11]; HCT-15) was 1540 nM. The TGI ([11]; HCT-15) was 2.87E−06, the “Percent Growth” value ([11]; HCT-15, Log10 Concentration −4.0) was −71% and the “Percent Growth” value ([11]; HCT-15, Log10 Concentration −5.0) was −100%. For the same substance, the “Percent Growth” value ([11]; HCT-15, Log10 Concentration −8.0) was 64%, the GI50 [12] was 1500 nM and the TGI [12] was 2.83E−06. For the same substance, the “Percent Growth” value ([12]; Log10 Concentration −4.0) was −99%, the “Percent Growth” value ([12]; Log10 Concentration −5.0) was −100% and the “Percent Growth” value ([12]; Log10 Concentration −6.0) was 82%. The “Percent Growth” value ([12]; Log10 Concentration −7.0) was 91%, the “Percent Growth” value ([12]; Log10 Concentration −8.0) was 95% and the GI50 [13] was 1570 nM. The TGI [13] was 2.91E−06, the “Percent Growth” value ([13]; Log10 Concentration −4.0) was −62% and the “Percent Growth” value ([13]; Log10 Concentration −5.0) was −100%. For the same substance, the “Percent Growth” value ([13]; Log10 Concentration −7.0) was 78%, the GI50 [14] was 1560 nM and the TGI [14] was 2.89E−06. For the same substance, the “Percent Growth” value ([14]; Log10 Concentration −4.0) was −53%, the “Percent Growth” value ([14]; Log10 Concentration −5.0) was −100% and the “Percent Growth” value ([14]; Log10 Concentration −7.0) was 90%. The GI50 [15] was 1640 nM, the TGI [15] was 3.04E−06 and the “Percent Growth” value ([15]; Log10 Concentration −4.0) was −20%. For the same substance, the “Percent Growth” value ([15]; Log10 Concentration −5.0) was −97%, the “Percent Growth” value ([15]; Log10 Concentration −6.0) was 90% and the “Percent Growth” value ([15]; Log10 Concentration −7.0) was 91%. The “Percent Growth” value ([15]; Log10 Concentration −8.0) was 91%, the GI50 [16] was 1820 nM and the TGI [16] was 3.44E−06. The “Percent Growth” value ([16]; Log10 Concentration −4.0) was −49%, the “Percent Growth” value ([16]; Log10 Concentration −6.0) was 97% and the “Percent Growth” value ([16]; Log10 Concentration −7.0) was 82%.
